# Experiments:
# [1] = system: Italian ryegrass; assay: Test C pre-/postemergence test; type: in vivo, Lolium multiflorum; settings: for Plant response rating (0 to 100), Ryegrass, Italian / Plant response rating, Ryegrass, Italian: Postemergence; for Plant response rating, Ryegrass, Italian: scale 0 to 100, 0 no effect, 100 complete control
# Procedure, shortened: (§1)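 Test chemicals were formulated with surfactant in a non-phytotoxic solvent and sprayed both on freshly planted seeds (preemergence) and on 1- to 4-leaf plants of 2–18 cm (postemergence). Flooded-paddy pots received compound directly into 3 cm of standing water, maintained for the test.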
# [2] = system: redroot pigweed; assay: Test A pre-/postemergence greenhouse test; type: in vivo, Amaranthus retroflexus; settings: for Plant response rating, Pigweed: 0 to 100 scale where 0 is no effect and 100 is complete control; for Pigweed plant response rating: 0 to 100 scale
# Procedure, shortened: (§2)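 Seeds sown in a loam soil–sand blend got a preemergence directed soil spray of compound in a non-phytotoxic solvent mixture containing surfactant. Postemergence sprays of the same formulation went at the same time onto plants 2–10 cm tall at the one- to two-leaf stage. Injury was scored visually against untreated controls after about ten days in the greenhouse.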
# [3] = system: common (oilseed) sunflower; assay: Test C pre-/postemergence test; type: in vivo, Helianthus annuus
# Procedure, shortened: as §1
# [4] = system: rice; assay: Test C flooded paddy test; type: in vivo, Oryza sativa; settings: Flood
# Procedure, shortened: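 Compound was added to standing water 3 cm above soil, flood maintained, and plants held in a greenhouse before visual scoring against controls at 13 to 15 days.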
# [5] = system: corn; assay: Test A pre-/postemergence greenhouse test; type: in vivo, Zea mays; settings: for Plant response rating, Corn: 0 to 100 scale where 0 is no effect and 100 is complete control; for Corn plant response rating: 0 to 100 scale
# Procedure, shortened: as §2
# [6] = system: kochia; assay: Test C pre-/postemergence test; type: in vivo, Kochia scoparia
# Procedure, shortened: as §1
# [7] = system: giant foxtail; assay: Test C pre-/postemergence test; type: in vivo, Setaria faberii
# Procedure, shortened: as §1
# [8] = system: morningglory; assay: Test A pre-/postemergence greenhouse test; type: in vivo, Ipomoea spp.; settings: for Plant response rating, Morningglory: 0 to 100 scale where 0 is no effect and 100 is complete control; for Morningglory plant response rating: 0 to 100 scale
# Procedure, shortened: as §2
# [9] = system: bermudagrass; assay: Test C pre-/postemergence test; type: in vivo, Cynodon dactylon
# Procedure, shortened: as §1
# [10] = system: yellow nutsedge; assay: Test C pre-/postemergence test; type: in vivo, Cyperus esculentus
# Procedure, shortened: as §1
# [11] = system: johnsongrass; assay: Test C pre-/postemergence test; type: in vivo, Sorghum halepense
# Procedure, shortened: as §1
# [12] = system: wheat; assay: Test C pre-/postemergence test; type: in vivo, Triticum aestivum
# Procedure, shortened: as §1
# [13] = system: cocklebur; assay: Test C pre-/postemergence test; type: in vivo, Xanthium strumarium; settings: for Plant response rating, Cocklebur: scale 0 to 100, 0 no effect, 100 complete control
# Procedure, shortened: as §1
# [14] = system: wild oat; assay: Test C pre-/postemergence test; type: in vivo, Avena fatua
# Procedure, shortened: as §1
# [15] = system: corn; assay: Test C pre-/postemergence test; type: in vivo, Zea mays
# Procedure, shortened: as §1
# [16] = system: morningglory; assay: Test C pre-/postemergence test; type: in vivo, Ipomoea coccinea
# Procedure, shortened: as §1
# [17] = 62 g ai/ha, Preemergence, scale 0 to 100
# [18] = 125 g ai/ha, preemergence, scale 0 (no effect) to 100 (complete control)
# [19] = preemergence, 250 g ai/ha, scale 0 (no effect) to 100 (complete control)
# [20] = Postemergence, 500 g ai/ha, 0 is no effect, 100 is complete control
# [21] = Preemergence, 125 g ai/ha, 0 no effect, 100 complete control
# [22] = Preemergence, 31 g ai/ha, scale 0 to 100 (0 no effect, 100 complete control)
# [23] = Postemergence, 62 g ai/ha, scale 0 to 100, 0 no effect, 100 complete control
# [24] = Postemergence, 125 g ai/ha, scale 0 to 100, 0 no effect, 100 complete control
# [25] = Postemergence, 250 g ai/ha, scale 0 to 100, 0 no effect, 100 complete control
structure (smiles),measurement,setting,value
CCn1nc(C(F)(F)F)c(CS(=O)(=O)c2cc(C)cc[n+]2[O-])c1OCC(F)(F)F [Compound 64],"Ryegrass, Italian plant response rating",[1]; [17],50
same,"Ryegrass, Italian plant response rating",[1]; [18],90
same,"Plant response rating (0 to 100), Ryegrass, Italian",[1]; 31 g ai/ha,0
same,"Plant response rating (0 to 100), Ryegrass, Italian",[1]; 62 g ai/ha,0
same,"Plant response rating, Ryegrass, Italian",[1]; 125 g ai/ha,30
same,"Plant response rating, Ryegrass, Italian",[1]; 250 g ai/ha,45
same,"Ryegrass, Italian plant response rating",[1]; [19],100
same,"Plant response rating, Pigweed","[2]; Postemergence, 125 g ai/ha",70
same,Pigweed plant response rating,[2]; [20],80
same,Pigweed plant response rating,[2]; [21],50
same,"Plant response rating, Pigweed","[2]; Preemergence, 500 g ai/ha",100
same,Sunflower plant response rating,[3]; [17],30
same,Sunflower plant response rating,[3]; [18],80
same,"Plant response rating, Sunflower",[3]; [22],0
same,Sunflower plant response rating,[3]; [19],95
same,"Plant response rating, Rice","[4]; 62 g ai/ha, scale 0 to 100 (0 no effect, 100 complete control)",0
same,"Plant response rating, Rice","[4]; 250 g ai/ha, scale 0 to 100, 0 no effect, 100 complete control, 13 to 15 days",60
same,"Plant response rating, Corn","[5]; Postemergence, 125 g ai/ha",40
same,Corn plant response rating,[5]; [20],50
same,Corn plant response rating,[5]; [21],0
same,"Plant response rating, Corn","[5]; Preemergence, 500 g ai/ha",60
same,Kochia plant response rating,[6]; [17],100
same,Kochia plant response rating,[6]; [18],100
same,"Plant response rating (0 to 100), Kochia","[6]; Postemergence, 31 g ai/ha",0
same,"Plant response rating, Kochia",[6]; [23],0
same,"Plant response rating, Kochia",[6]; [24],0
same,"Plant response rating, Kochia",[6]; [25],0
same,"Plant response rating, Kochia",[6]; [22],100
same,Kochia plant response rating,[6]; [19],100
same,"Foxtail, Giant plant response rating",[7]; [17],100
same,"Foxtail, Giant plant response rating",[7]; [18],100
same,"Plant response rating (0 to 100), Foxtail, Giant","[7]; Postemergence, 31 g ai/ha",0
same,"Plant response rating, Foxtail, Giant",[7]; [23],0
same,"Plant response rating, Foxtail, Giant",[7]; [24],0
same,"Plant response rating, Foxtail, Giant",[7]; [25],45
same,"Plant response rating, Foxtail, Giant",[7]; [22],85
same,"Foxtail, Giant plant response rating",[7]; [19],100
same,"Plant response rating, Morningglory","[8]; Postemergence, 125 g ai/ha",30
same,Morningglory plant response rating,[8]; [20],60
same,Morningglory plant response rating,[8]; [21],30
same,"Plant response rating, Morningglory","[8]; Preemergence, 500 g ai/ha",80
same,Bermudagrass plant response rating,"[9]; 62 g ai/ha, Preemergence, scale 0 to 100 (0 no effect, 100 complete control)",100
same,Bermudagrass plant response rating,[9]; [18],100
same,"Plant response rating (0 to 100), Bermudagrass","[9]; Postemergence, 31 g ai/ha",0
same,"Plant response rating, Bermudagrass",[9]; [23],0
same,"Plant response rating, Bermudagrass",[9]; [24],0
same,"Plant response rating, Bermudagrass",[9]; [25],40
same,"Plant response rating, Bermudagrass",[9]; [22],100
same,Bermudagrass plant response rating,[9]; [19],100
same,"Nutsedge, Yellow plant response rating",[10]; [17],98
same,"Nutsedge, Yellow plant response rating",[10]; [18],98
same,"Plant response rating (0 to 100), Nutsedge, Yellow","[10]; Postemergence, 31 g ai/ha",0
same,"Plant response rating, Nutsedge, Yellow",[10]; [23],0
same,"Plant response rating, Nutsedge, Yellow",[10]; [24],0
same,"Plant response rating, Nutsedge, Yellow",[10]; [25],0
same,"Plant response rating, Nutsedge, Yellow",[10]; [22],0
same,"Nutsedge, Yellow plant response rating",[10]; [19],98
same,Johnsongrass plant response rating,[11]; [17],98
same,Johnsongrass plant response rating,[11]; [18],100
same,"Plant response rating (0 to 100), Johnsongrass","[11]; Postemergence, 31 g ai/ha",0
same,"Plant response rating, Johnsongrass",[11]; [23],0
same,"Plant response rating, Johnsongrass",[11]; [24],0
same,"Plant response rating, Johnsongrass",[11]; [25],0
same,"Plant response rating, Johnsongrass",[11]; [22],55
same,Johnsongrass plant response rating,[11]; [19],100
same,Wheat plant response rating,[12]; [17],20
same,Wheat plant response rating,[12]; [18],30
same,"Plant response rating (0 to 100), Wheat","[12]; Postemergence, 31 g ai/ha",0
same,"Plant response rating (0 to 100), Wheat","[12]; Postemergence, 62 g ai/ha",50
same,"Plant response rating, Wheat",[12]; [24],65
same,"Plant response rating, Wheat",[12]; [25],65
same,"Plant response rating, Wheat",[12]; [22],0
same,Wheat plant response rating,[12]; [19],100
same,Cocklebur plant response rating,[13]; [17],0
same,Cocklebur plant response rating,[13]; [18],0
same,"Plant response rating (0 to 100), Cocklebur","[13]; Postemergence, 31 g ai/ha",0
same,"Plant response rating, Cocklebur","[13]; Postemergence, 62 g ai/ha",0
same,"Plant response rating, Cocklebur","[13]; Postemergence, 125 g ai/ha",0
same,"Plant response rating, Cocklebur","[13]; Postemergence, 250 g ai/ha",0
same,"Oat, Wild plant response rating",[14]; [17],80
same,"Oat, Wild plant response rating",[14]; [18],90
same,"Plant response rating (0 to 100), Oat, Wild","[14]; Postemergence, 31 g ai/ha",0
same,"Plant response rating, Oat, Wild",[14]; [23],30
same,"Plant response rating, Oat, Wild",[14]; [24],50
same,"Plant response rating, Oat, Wild",[14]; [25],85
same,"Plant response rating, Oat, Wild",[14]; [22],50
same,"Oat, Wild plant response rating",[14]; [19],98
same,Corn plant response rating,[15]; [17],95
same,Corn plant response rating,[15]; [18],95
same,"Plant response rating (0 to 100), Corn","[15]; Postemergence, 31 g ai/ha",0
same,"Plant response rating, Corn",[15]; [23],0
same,"Plant response rating, Corn",[15]; [24],0
same,"Plant response rating, Corn",[15]; [25],0
same,"Plant response rating, Corn",[15]; [22],0
same,Corn plant response rating,[15]; [19],95
same,Morningglory plant response rating,[16]; [17],50
same,Morningglory plant response rating,[16]; [18],55
same,"Plant response rating (0 to 100), Morningglory","[16]; Postemergence, 31 g ai/ha",0
same,"Plant response rating, Morningglory",[16]; [23],0
same,"Plant response rating, Morningglory",[16]; [24],0
same,"Plant response rating, Morningglory",[16]; [25],0
same,"Plant response rating, Morningglory",[16]; [22],0
same,Morningglory plant response rating,[16]; [19],80
